One test relates to CCL2. The test can be described thus: Mouse CCL2 assay in MLE12 cells. It counts as cell-based. As to conditions: MLE12 cells, TNF-α 20 ng/ml, supernatant after 30 hours, HTRF, read-out: CCL2 (EC50). A digest of the protocol: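 CCL2 in supernatants was quantified by two-antibody HTRF FRET, read at 620 and 665 nm after overnight RT incubation, with IC50 derived from delta ratios. Cells were SV40-transformed mouse MLE12, treated with duplicate 6-point compound series for 1 h before 30 h TNF-α (20 ng/ml final) stimulation.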

A further test deals with OGG1 (Homo sapiens (Human), UniProt O15527). The test can be described thus: In vitro OGG1 activity assay. Format: biochemical. The note with it: 800 pM OGG1 enzyme, 2 nM human APEX1, 10 nM 8-oxoA:C substrate. In a few lines: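 Read-out is fluorescein fluorescence, with compounds in DMSO added first, then enzyme and substrate. OGG1 excises its substrate base from a quenched fluorophore-labelled duplex, and surplus APEX1 cuts the resulting apurinic site. The duplex then melts and fluorescence rises in proportion to glycosylase activity.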
OGG1, sequence (O15527 whole entry): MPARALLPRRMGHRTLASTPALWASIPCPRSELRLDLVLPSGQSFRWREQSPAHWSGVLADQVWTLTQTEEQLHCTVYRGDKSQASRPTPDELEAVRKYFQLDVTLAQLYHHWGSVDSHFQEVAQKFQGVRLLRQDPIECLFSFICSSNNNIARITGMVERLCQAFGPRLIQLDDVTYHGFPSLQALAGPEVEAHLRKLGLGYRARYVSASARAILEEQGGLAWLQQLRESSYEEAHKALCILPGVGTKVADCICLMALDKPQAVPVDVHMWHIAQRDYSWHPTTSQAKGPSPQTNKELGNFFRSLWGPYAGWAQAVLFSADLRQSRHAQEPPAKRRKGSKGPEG

Another test has as its system MLE12 cells. The test can be described thus: Cell viability assay in MLE12 cells (resazurin). Format: cell-based, mouse. As to conditions: TNF-α 20 ng/ml, resazurin added after 24 hours culture. A digest of the protocol: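 MLE12 cells (7500 cells/well) were seeded onto 11-point duplicate compound dose-responses, with TNF-α (final 20 ng/ml) added after 1 hour at 37° C. After 24 hours, resazurin was added for 6 hours and resorufin fluorescence read (ex544 nm/em595 nm). EC50 values were calculated by curve fitting.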

The record followed here is patent US11970474B2, “Substituted benzodiazoles and use thereof in therapy” (THOMAS HELLEDAYS STIFTELSE FÖR MEDICINSK FORSKNING, priority 2018, dated 2024).

Molecules are shown by their SMILES. Like-named read-outs stand apart in the source and are kept apart here.

With `COc1cc(NC(=O)[C@H]2CC[C@@H](n3c(=O)[nH]c4c(N(C)CCCN)cccc43)CC2)ccc1C` [Example 302, Cis-4-{4-[(3-aminopropyl)(methyl)amino]-2-oxo-2,3-dihydro-1H-1,3-benzodiazol-1-yl}-N-(3-methoxy-4-methylphenyl)cyclohexane-1-carboxamide], the EC50 in the test with CCL2 (Mus musculus, MLE12, 30 h) came out at 27.2 µM. The IC50 against OGG1 is 0.0164 µM; with MLE12 cells (Mus musculus, MLE12, 24 h), 14.4 µM.
Turning to `Cc1ccc(NC(=O)[C@H]2CC[C@@H](n3c(=O)[nH]c4c(Cl)cccc43)CC2)cc1` [Example 149, (Cis)-4-(4-chloro-2-oxo-2,3-dihydro-1H-1,3-benzodiazol-1-yl)-N-(4-methylphenyl)cyclohexane-1-carboxamide], the EC50 in the test on CCL2 (Mus musculus, MLE12, 30 h) was 33.7 µM. The IC50 at OGG1 stood at 0.086 µM; in the test with MLE12 cells (Mus musculus, MLE12, 24 h), 16.7 µM.
Regarding `COc1cc(NC(=O)[C@H]2CC[C@@H](n3c(=O)[nH]c4cc(C#N)ccc43)CC2)ccc1C` [Example 238, Cis-4-(5-cyano-2-oxo-2,3-dihydro-1H-1,3-benzodiazol-1-yl)-N-(3-methoxy-4-methylphenyl)cyclohexane-1-carboxamide], the EC50 with CCL2 (Mus musculus, MLE12, 30 h) is 27.1 µM. Besides, the IC50 is 0.0409 µM against OGG1 and 9.18 µM with MLE12 cells (Mus musculus, MLE12, 24 h).
On to `COc1cc(NC(=O)[C@H]2CC[C@@H](n3c(=O)[nH]c4c(N(C)CCN)cccc43)CC2)ccc1C` [Example 298, Cis-4-{4-[(2-aminoethyl)(methyl)amino]-2-oxo-2,3-dihydro-1H-1,3-benzodiazol-1-yl}-N-(3-methoxy-4-methylphenyl)cyclohexane-1-carboxamide], for which the EC50 in the test with CCL2 (Mus musculus, MLE12, 30 h) stood at 36.6 µM. In addition, the IC50 at OGG1 turned out to be 0.012 µM; in the test on MLE12 cells (Mus musculus, MLE12, 24 h) it was 29.2 µM.
On to `Cc1cc(NC(=O)[C@H]2CC[C@@H](n3c(=O)[nH]c4c(Br)cccc43)CC2)cnc1Cl` [Example 187, Cis-4-(4-bromo-2-oxo-2,3-dihydro-1H-1,3-benzodiazol-1-yl)-N-(6-chloro-5-methylpyridin-3-yl)cyclohexane-1-carboxamide], for which, in the test on CCL2 (Mus musculus, MLE12, 30 h), the EC50 is 13 µM. Moreover, the IC50 turned out to be 0.338 µM against OGG1 and 7.9 µM in the test with MLE12 cells (Mus musculus, MLE12, 24 h).
In the case of `O=c1[nH]c2c(Br)cccc2n1[C@H]1CC[C@@H](C(=O)Nc2ccc(O)cc2)CC1` [Example 191, Cis-4-(4-bromo-2-oxo-2,3-dihydro-1H-1,3-benzodiazol-1-yl)-N-(4-hydroxyphenyl)cyclohexane-1-carboxamide], the EC50 in the test on CCL2 (Mus musculus, MLE12, 30 h) amounted to 33.5 µM. The IC50 against OGG1 is 0.0557 µM; in the test with MLE12 cells (Mus musculus, MLE12, 24 h), 29.8 µM.
On to `COc1cc(NC(=O)[C@H]2CC[C@@H](n3c(=O)[nH]c4c(N(C)CCN(C)C)cccc43)CC2)ccc1C` [Example 229, Cis-4-(4-{[2-(dimethylamino)ethyl](methyl)amino}-2-oxo-2,3-dihydro-1H-1,3-benzodiazol-1-yl)-N-(3-methoxy-4-methylphenyl)cyclohexane-1-carboxamide], for which the EC50 stood at 6.93 µM with CCL2 and 12.2 µM in the test on CCL2 (Mus musculus, MLE12, 30 h). For the same compound, the IC50 at OGG1 was determined as 0.0298 µM; with MLE12 cells (Mus musculus, MLE12, 24 h) it was 9.19 µM; in the test with MLE12 cells, 6.67 µM.
Regarding `CN(C)CCNC(=O)c1cnn(-c2cccc3c2[nH]c(=O)n3C2CCN(C(=O)Nc3ccc(I)cc3)CC2)c1` [Example 89, 4-(4-(4-((2-(Dimethylamino)ethyl)carbamoyl)-1H-pyrazol-1-yl)-2-oxo-2,3-dihydro-1H-benzo[d]imidazol-1-yl)-N-(4-iodophenyl)piperidine-1-carboxamide 2,2,2-trifluoroacetate], in the test on CCL2 (Mus musculus, MLE12, 30 h), the EC50 amounted to 47.1 µM. Also, the IC50 is 0.09 µM at OGG1 and 25.1 µM with MLE12 cells (Mus musculus, MLE12, 24 h).
As to `COc1cc(NC(=O)[C@H]2CC[C@@H](n3c(=O)[nH]c4c(C(=O)NCC5CCCO5)cccc43)CC2)ccc1C` (stereo partly drawn) [Example 273, 2-Oxo-N-[(oxolan-2-yl)methyl]-1-[cis-4-[(3-methoxy-4-methylphenyl)carbamoyl]cyclohexyl]-2,3-dihydro-1H-1,3-benzodiazole-4-carboxamide], the EC50 with CCL2 (Mus musculus, MLE12, 30 h) worked out at 32.6 µM. Besides, the IC50 against OGG1 was 0.0175 µM; in the test with MLE12 cells (Mus musculus, MLE12, 24 h), 19.2 µM.
Regarding `COc1cc(NC(=O)[C@H]2CC[C@@H](n3c(=O)[nH]c4c(S)cccc43)CC2)ccc1C` [Example 237, Cis-N-(3-methoxy-4-methylphenyl)-4-(2-oxo-4-sulfanyl-2,3-dihydro-1H-1,3-benzodiazol-1-yl)cyclohexane-1-carboxamide], in the test with CCL2 (Mus musculus, MLE12, 30 h), the EC50 is 31.7 µM. In addition, the IC50 at OGG1 stood at 0.0671 µM; in the test on MLE12 cells (Mus musculus, MLE12, 24 h), 4.54 µM.
On to `COc1cc(NC(=O)[C@H]2CC[C@@H](n3c(=O)[nH]c4c(Br)cccc43)CC2)ccc1C` [Example 107, (Cis)-4-(4-bromo-2-oxo-2,3-dihydro-1H-1,3-benzodiazol-1-yl)-N-(3-methoxy-4-methylphenyl)cyclohexane-1-carboxamide], for which the EC50 worked out at 16.7 µM in the test on CCL2 and 15.6 µM in the test with CCL2 (Mus musculus, MLE12, 30 h). Besides, the IC50 was determined as 0.023 µM at OGG1; 7.41 µM in the test on MLE12 cells (Mus musculus, MLE12, 24 h); 7.4 µM in the test on MLE12 cells.
Turning to `COc1cc(NC(=O)N2CCC(n3c(=O)[nH]c4c(-c5ccc(CO)nc5)cccc43)CC2)ccc1C` [Example 82, 4-{4-[6-(Hydroxymethyl)pyridin-3-yl]-2-oxo-2,3-dihydro-1H-1,3-benzodiazol-1-yl}-N-(3-methoxy-4-methylphenyl)piperidine-1-carboxamide], in the test with CCL2 (Mus musculus, MLE12, 30 h), the EC50 was 30.8 µM. Further, the IC50 on OGG1 amounted to 1 µM; in the test with MLE12 cells (Mus musculus, MLE12, 24 h), 17.7 µM.
With `COc1cc(NC(=O)[C@H]2CC[C@@H](n3c(=O)[nH]c4c(OCCCN(C)C)cccc43)CC2)ccc1C` [Example 306, Cis-4-{4-[3-(dimethylamino)propoxy]-2-oxo-2,3-dihydro-1H-1,3-benzodiazol-1-yl}-N-(3-methoxy-4-methylphenyl)cyclohexane-1-carboxamide], in the test on CCL2 (Mus musculus, MLE12, 30 h), the EC50 turned out to be 8.07 µM. The IC50 is 0.00282 µM against OGG1 and 7.15 µM in the test with MLE12 cells (Mus musculus, MLE12, 24 h).
For the compound `O=c1[nH]c2c(Br)cccc2n1[C@H]1CC[C@@H](C(=O)Nc2ccc(Cl)cc2)CC1` [Example 119, (Cis)-4-(4-bromo-2-oxo-2,3-dihydro-1H-1,3-benzodiazol-1-yl)-N-(4-chlorophenyl)cyclohexane-1-carboxamide], in the test on CCL2 (Mus musculus, MLE12, 30 h), the EC50 stood at 17.7 µM. Besides, the IC50 against OGG1 was determined as 0.072 µM; in the test on MLE12 cells (Mus musculus, MLE12, 24 h), 5.07 µM.
In the same order, the values of `Cc1n[nH]c2ccc(NC(=O)[C@H]3CC[C@@H](n4c(=O)[nH]c5c(Br)cccc54)CC3)cc12` [Example 199, Cis-4-(4-bromo-2-oxo-2,3-dihydro-1H-1,3-benzodiazol-1-yl)-N-(3-methyl-1H-indazol-5-yl)cyclohexane-1-carboxamide] are 16.5 µM, 0.494 µM and 7.51 µM.
For `O=C(Nc1ccc(Cl)c(Cl)c1)N1CCC(n2c(=O)[nH]c3c(Br)cccc32)CC1` [Example 27, 4-(4-Bromo-2-oxo-2,3-dihydro-1H-1,3-benzodiazol-1-yl)-N-(3,4-dichlorophenyl)piperidine-1-carboxamide], the EC50 in the test with CCL2 (Mus musculus, MLE12, 30 h) worked out at 16.3 µM. Also, the IC50 against OGG1 was determined as 0.488 µM; in the test with MLE12 cells (Mus musculus, MLE12, 24 h), 7.74 µM.
In the same order, the values of `COc1ccc(CSc2cccc3c2[nH]c(=O)n3[C@H]2CC[C@@H](C(=O)Nc3ccc(C)c(OC)c3)CC2)cc1` [Example 230, Cis-N-(3-methoxy-4-methylphenyl)-4-(4-{[(4-methoxyphenyl)methyl]sulfanyl}-2-oxo-2,3-dihydro-1H-1,3-benzodiazol-1-yl)cyclohexane-1-carboxamide] are 5.84 µM, 0.606 µM and 2.58 µM.
For `Cc1cc(NC(=O)[C@H]2CC[C@@H](n3c(=O)[nH]c4c(Br)cccc43)CC2)ccc1O` [Example 194, Cis-4-(4-bromo-2-oxo-2,3-dihydro-1H-1,3-benzodiazol-1-yl)-N-(4-hydroxy-3-methylphenyl)cyclohexane-1-carboxamide], in that order: 33.5 µM, 0.0172 µM and 15.6 µM.
On to `Cc1cc(NC(=O)[C@H]2CC[C@@H](n3c(=O)[nH]c4c(Br)cccc43)CC2)ccc1F` [Example 142, (Cis)-4-(4-bromo-2-oxo-2,3-dihydro-1H-1,3-benzodiazol-1-yl)-N-(4-fluoro-3-methylphenyl)cyclohexane-1-carboxamide], for which, in the test on CCL2 (Mus musculus, MLE12, 30 h), the EC50 stood at 15.8 µM. Moreover, the IC50 against OGG1 came out at 0.497 µM; in the test with MLE12 cells (Mus musculus, MLE12, 24 h) it was 7.96 µM.
In the same order, the values of `COc1ccc(NC(=O)[C@H]2CC[C@@H](n3c(=O)[nH]c4c(OC)cccc43)CC2)cc1C` [Example 206, Cis-4-(4-methoxy-2-oxo-2,3-dihydro-1H-1,3-benzodiazol-1-yl)-N-(4-methoxy-3-methylphenyl)cyclohexane-1-carboxamide] are 33.7 µM, 0.0154 µM and 26.7 µM.
On to `COc1cc(NC(=O)[C@H]2CC[C@@H](n3c(=O)[nH]c4c(Br)cccc43)CC2)ccc1Cl` [Example 122, (Cis)-4-(4-bromo-2-oxo-2,3-dihydro-1H-1,3-benzodiazol-1-yl)-N-(4-chloro-3-methoxyphenyl)cyclohexane-1-carboxamide], for which, in the test with CCL2 (Mus musculus, MLE12, 30 h), the EC50 amounted to 14.1 µM. The IC50 against OGG1 was 0.071 µM; in the test on MLE12 cells (Mus musculus, MLE12, 24 h), 4.5 µM.
